Legend:
[1] = biological target: T1, human orexin-2 receptor (Homo sapiens, UniProt O43614); test: Intracellular calcium measurements (FLIPR), antagonism of 10 nM orexin-A in CHO cells expressing the human orexin-2 receptor; type: cell-based; conditions: CHO cells expressing human orexin-2 receptor, agonist 10 nM orexin-A, read-out: OX2 IC50
T1 construct: expressed in transfected cells; host or cells: CHO cells (G418 selection)
T1 sequence (O43614 1-444): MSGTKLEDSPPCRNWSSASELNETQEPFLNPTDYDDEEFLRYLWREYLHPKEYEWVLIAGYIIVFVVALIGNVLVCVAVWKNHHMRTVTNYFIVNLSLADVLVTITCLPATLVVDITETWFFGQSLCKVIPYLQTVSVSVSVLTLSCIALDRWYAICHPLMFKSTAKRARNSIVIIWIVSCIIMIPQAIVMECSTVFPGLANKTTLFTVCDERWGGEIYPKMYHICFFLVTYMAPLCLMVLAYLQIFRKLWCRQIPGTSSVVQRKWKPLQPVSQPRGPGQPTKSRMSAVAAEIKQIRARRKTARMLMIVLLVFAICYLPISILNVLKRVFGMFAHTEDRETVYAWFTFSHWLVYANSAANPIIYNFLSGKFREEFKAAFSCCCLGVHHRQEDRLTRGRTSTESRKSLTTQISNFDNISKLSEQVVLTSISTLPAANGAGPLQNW
Description: (§1) The orexin receptor antagonistic activity of the compounds of formula (I) is determined in accordance with the following experimental method.
(§2) • Intracellular Calcium Measurements:
(§3) Chinese hamster ovary (CHO) cells expressing the human orexin-1 receptor and the human orexin-2 receptor, respectively, are grown in culture medium (Ham F-12 with L-Glutamine) containing 300 μg/ml G418, 100 U/ml penicillin, 100 μg/ml streptomycin and 10% inactivated fetal calf serum (FCS). The cells are seeded at 80,000 cells/well into 96-well black clear bottom sterile plates (Costar) which have been precoated with 1% gelatine in Hanks' Balanced Salt Solution (HBSS). All reagents are from Gibco BRL. The seeded plates are incubated overnight at 37° C. in 5% CO2.
(§4) Human orexin-A as an agonist is prepared as 1 mM stock solution in methanol:water (1:1), diluted in HBSS containing 0.1% bovine serum albumin (BSA) and 2 mM HEPES for use in the assay at a final concentration of 10 nM.
(§5) Antagonists are prepared as 10 mM stock solution in DMSO, then diluted in 96-well plates, first in DMSO, then in HBSS containing 0.1% bovine serum albumin (BSA) and 2 mM HEPES.
(§6) On the day of the assay, 100 μl of loading medium (HBSS containing 1% FCS, 2 mM HEPES, 5 mM probenecid (Sigma) and 3 μM of the fluorescent calcium indicator fluo-3 AM (1 mM stock solution in DMSO with 10% pluronic acid) (Molecular Probes) is added to each well.
(§7) The 96-well plates are incubated for 60 min at 37° C. in 5% CO2. The loading solution is then aspirated and cells are washed 3 times with 200 μl HBSS containing 2.5 mM probenecid, 0.1% BSA, 2 mM HEPES. 100 μl of that same buffer is left in each well.
(§8) Within the Fluorescent Imaging Plate Reader (FLIPR, Molecular Devices), antagonists are added to the plate in a volume of 50 μl, incubated for 20 min and finally 100 μl of agonist is added. Fluorescence is measured for each well at 1 second intervals, and the height of each fluorescence peak is compared to the height of the fluorescence peak induced by 10 nM orexin-A with buffer in place of antagonist. For each antagonist, IC50 value (the concentration of compound needed to inhibit 50% of the agonistic response) is determined. Antagonistic activities of compounds are in the nanomolar range with respect to OX1 and OX2 receptors.

[2] = biological target: T2, human orexin-1 receptor (Homo sapiens, UniProt O43613); test: Intracellular calcium measurements (FLIPR), antagonism of 10 nM orexin-A in CHO cells expressing the human orexin-1 receptor; type: cell-based; conditions: CHO cells expressing human orexin-1 receptor, agonist 10 nM orexin-A, read-out: OX1 IC50
T2 construct: expressed in transfected cells; host or cells: CHO cells (G418 selection)
T2 sequence (O43613 1-425): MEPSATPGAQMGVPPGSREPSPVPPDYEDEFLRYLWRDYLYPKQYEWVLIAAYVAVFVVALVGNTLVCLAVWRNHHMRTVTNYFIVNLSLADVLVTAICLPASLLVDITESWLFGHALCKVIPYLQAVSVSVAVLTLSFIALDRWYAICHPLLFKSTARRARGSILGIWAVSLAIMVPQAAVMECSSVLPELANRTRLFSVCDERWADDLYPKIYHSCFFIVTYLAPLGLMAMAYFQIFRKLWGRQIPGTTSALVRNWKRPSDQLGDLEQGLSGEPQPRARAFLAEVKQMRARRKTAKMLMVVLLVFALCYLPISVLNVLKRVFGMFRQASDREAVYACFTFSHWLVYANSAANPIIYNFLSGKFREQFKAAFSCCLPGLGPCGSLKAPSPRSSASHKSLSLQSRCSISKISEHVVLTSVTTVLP
Description: as §1, §2, §3, §4, §5, §6, §7, §8

Row | Compound | IC50 [1] [nM] | IC50 [2] [nM]
1 | CCN(Cc1cncc(C)n1)C(=S)CN(c1cc(N(C)C)ccc1Cl)S(=O)(=O)c1ccc(OC)c(OC)c1 [Example 14, 2-[(2-Chloro-5-dimethylamino-phenyl)-(3,4-dimethoxy-benzenesulfonyl)-amino]-N-ethyl-N-(6-methyl-pyrazin-2-ylmethyl)-thioacetamide] | 12 | 15
2 | CCN(CC)C(=O)CN(c1ccc(Cl)cc1C#N)S(=O)(=O)c1ccc(OC)c(OC)c1 [Example 27, 2-[(4-Chloro-2-cyano-phenyl)-(3,4-dimethoxy-benzenesulfonyl)-amino]-N,N-diethyl-acetamide] | 2 | 180
3 | CCN(Cc1cccc(C)n1)C(=O)CN(c1cc2c(C)nsc2cc1Cl)S(=O)(=O)c1ccc(OC)c(OC)c1 [Example 21, 2-[(6-Chloro-3-methyl-benzo[d]isothiazol-5-yl)-(3,4-dimethoxy-benzenesulfonyl)-amino]-N-ethyl-N-(6-methyl-pyridin-2-ylmethyl)-acetamide] | 7 | 8

The next lines start with the values.

Row | IC50 [1] [nM] | IC50 [2] [nM] | Compound
4 | 7 | 63 | COc1ccc(S(=O)(=O)N(CC(=O)N(CCO)Cc2ccccn2)c2cc(N(C)C)ccc2Cl)cc1OC [Example 55, 2-[(2-Chloro-5-dimethylamino-phenyl)-(3,4-dimethoxy-benzenesulfonyl)-amino]-N-(2-hydroxy-ethyl)-N-pyridin-2-ylmethyl-acetamide]
5 | 10 | 166 | CCN(CC)C(=O)CN(c1cc(N(C)C)ccc1C#N)S(=O)(=O)c1ccc(OC)c(OC)c1 [Example 58, 2-[(2-Cyano-5-dimethylamino-phenyl)-(3,4-dimethoxy-benzenesulfonyl)-amino]-N,N-diethyl-acetamide]

— patent US8003654B2, “N-glycinsulfonamide derivatives and uses as orexin receptor antagonists” (Actelion Pharmaceuticals Ltd., priority 2006, dated 2011)
